{
  "source": "paper PMC12350162",
  "about": "“Electron flow in hydrogenotrophic methanogens under nickel limitation” (Nature, 2025)",
  "key": {"[1]": {"target": "T1, Elp–Hdr complex, HdrA site (bifurcating FAD) (Methanothermobacter marburgensis, UniProt Q50756)", "T1 construct": "with H(2):CoB-CoM heterodisulfide,ferredoxin reductase subunit B; H(2):CoB-CoM heterodisulfide,ferredoxin reductase subunit C; F420-dependent electron-donating protein A (truncated formate dehydrogenase alpha subunit FdhA homologue); F420-dependent electron-donating protein B (formate dehydrogenase beta subunit FdhB homologue); F420-dependent electron-donating protein C (MvhD homologue)", "T1 sequence (Q50756 2-659)": "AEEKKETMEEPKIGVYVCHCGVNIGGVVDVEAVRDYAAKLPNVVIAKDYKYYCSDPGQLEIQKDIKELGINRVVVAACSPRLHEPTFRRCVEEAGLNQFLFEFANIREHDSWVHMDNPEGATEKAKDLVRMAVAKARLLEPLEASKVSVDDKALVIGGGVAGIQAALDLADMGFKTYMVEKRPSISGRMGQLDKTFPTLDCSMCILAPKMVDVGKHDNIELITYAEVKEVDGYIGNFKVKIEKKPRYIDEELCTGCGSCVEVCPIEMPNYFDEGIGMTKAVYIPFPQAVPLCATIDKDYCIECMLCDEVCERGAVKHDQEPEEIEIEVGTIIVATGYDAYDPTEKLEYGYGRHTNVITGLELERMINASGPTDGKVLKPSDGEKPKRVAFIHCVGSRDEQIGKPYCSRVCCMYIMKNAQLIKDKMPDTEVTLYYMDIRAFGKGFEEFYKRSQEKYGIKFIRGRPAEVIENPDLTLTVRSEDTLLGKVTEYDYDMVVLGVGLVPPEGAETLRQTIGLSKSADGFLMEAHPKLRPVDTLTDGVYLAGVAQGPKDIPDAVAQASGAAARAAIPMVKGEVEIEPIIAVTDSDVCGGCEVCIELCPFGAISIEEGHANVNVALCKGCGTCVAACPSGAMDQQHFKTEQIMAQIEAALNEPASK", "T1 sequence (Q50755 whole entry partner, the tested form may be a part)": "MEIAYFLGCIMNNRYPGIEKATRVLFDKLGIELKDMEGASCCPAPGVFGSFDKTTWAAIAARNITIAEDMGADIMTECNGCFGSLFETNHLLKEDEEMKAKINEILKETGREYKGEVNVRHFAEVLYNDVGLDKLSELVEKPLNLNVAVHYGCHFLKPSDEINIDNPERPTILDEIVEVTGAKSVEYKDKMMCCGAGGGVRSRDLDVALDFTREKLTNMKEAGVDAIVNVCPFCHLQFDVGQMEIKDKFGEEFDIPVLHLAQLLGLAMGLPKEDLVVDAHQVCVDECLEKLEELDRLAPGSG", "T1 sequence (Q50754 2-185 partner)": "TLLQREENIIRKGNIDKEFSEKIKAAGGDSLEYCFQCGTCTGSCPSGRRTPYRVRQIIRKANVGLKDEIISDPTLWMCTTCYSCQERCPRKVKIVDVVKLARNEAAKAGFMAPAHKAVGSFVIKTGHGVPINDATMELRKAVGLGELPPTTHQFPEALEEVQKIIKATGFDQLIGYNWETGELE", "T1 sequence (D9PY04 1-342 partner)": "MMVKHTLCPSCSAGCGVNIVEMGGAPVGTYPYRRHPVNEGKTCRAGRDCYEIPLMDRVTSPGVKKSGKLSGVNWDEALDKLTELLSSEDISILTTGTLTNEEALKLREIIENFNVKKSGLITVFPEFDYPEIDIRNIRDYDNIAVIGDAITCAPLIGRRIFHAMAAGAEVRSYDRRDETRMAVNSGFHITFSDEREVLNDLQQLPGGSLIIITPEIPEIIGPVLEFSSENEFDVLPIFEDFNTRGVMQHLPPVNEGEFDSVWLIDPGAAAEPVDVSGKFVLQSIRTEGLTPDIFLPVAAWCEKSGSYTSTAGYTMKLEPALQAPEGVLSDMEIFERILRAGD", "T1 sequence (D9PY03 1-380 partner)": "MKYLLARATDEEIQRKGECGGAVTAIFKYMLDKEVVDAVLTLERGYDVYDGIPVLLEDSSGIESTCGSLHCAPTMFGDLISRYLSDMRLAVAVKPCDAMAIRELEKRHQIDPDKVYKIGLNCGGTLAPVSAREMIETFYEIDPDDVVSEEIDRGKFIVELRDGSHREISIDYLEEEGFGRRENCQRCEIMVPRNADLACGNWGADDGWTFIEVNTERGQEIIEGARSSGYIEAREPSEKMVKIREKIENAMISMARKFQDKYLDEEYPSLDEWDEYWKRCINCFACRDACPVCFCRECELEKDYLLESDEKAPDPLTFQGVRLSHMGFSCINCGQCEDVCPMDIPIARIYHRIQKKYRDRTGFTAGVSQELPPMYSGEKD", "T1 sequence (D9PY02 1-136 partner)": "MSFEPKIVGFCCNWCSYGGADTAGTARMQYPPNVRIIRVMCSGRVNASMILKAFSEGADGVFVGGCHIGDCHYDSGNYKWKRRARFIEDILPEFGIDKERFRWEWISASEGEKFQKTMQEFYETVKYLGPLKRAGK", "assay": "cryo-EM structure", "assay_type": "binding", "settings": "electron-bifurcating FAD site of HdrA; co-purified native cofactor"}, "[2]": {"target": "T2, Elp–Hdr complex (ElpABC–HdrABC)2, ElpB site (Methanothermobacter marburgensis, UniProt D9PY03)", "T2 construct": "gene fdhB; with F420-dependent electron-donating protein A (truncated formate dehydrogenase alpha subunit FdhA homologue); F420-dependent electron-donating protein C (MvhD homologue); H(2):CoB-CoM heterodisulfide,ferredoxin reductase subunit A; H(2):CoB-CoM heterodisulfide,ferredoxin reductase subunit B; H(2):CoB-CoM heterodisulfide,ferredoxin reductase subunit C", "T2 sequence (D9PY03 1-380)": "as the sequence (D9PY03 1-380 partner) above", "T2 sequence (D9PY04 1-342 partner)": "as the sequence (D9PY04 1-342 partner) above", "T2 sequence (D9PY02 1-136 partner)": "as the sequence (D9PY02 1-136 partner) above", "T2 sequence (Q50756 2-659 partner)": "as the sequence (Q50756 2-659) above", "T2 sequence (Q50755 whole entry partner, the tested form may be a part)": "as the sequence (Q50755 whole entry partner, the tested form may be a part) above", "T2 sequence (Q50754 2-185 partner)": "as the sequence (Q50754 2-185 partner) above", "assay": "cryo-EM structure", "settings": "FAD-binding site of ElpB; co-purified native cofactor; states 1 and 2"}},
  "data": [
    {"smiles": "Cc1cc2nc3c(=O)[nH]c(=O)nc-3n(C[C@H](O)[C@H](O)[C@H](O)COP(=O)(O)OP(=O)(O)OC[C@H]3O[C@@H](n4cnc5c(N)ncnc54)[C@H](O)[C@@H]3O)c2cc1C", "note": "[FAD]", "values": [
      {"measurement": "cryo-EM structure", "setting": "[1]", "result": "Cofactors including the electron-bifurcating FAD of HdrA"},
      {"measurement": "cryo-EM structure", "setting": "[2]", "result": "the positions of FAD and the four [4Fe–4S] clusters are conserved"}
    ]}
  ]
}
